Reference: ChEMBL document CHEMBL5653615 (J Biol Chem, 2013)

Columns and labels:
[1] = molecular target: Receptor tyrosine-protein kinase erbB-2 (Homo sapiens) (UniProt P04626); assay: Inhibition of human ERBB2 at 18.6 nM by HotSpot assay relative to control
[2] = molecular target: T1, Serine/threonine-protein kinase DCLK2 (Homo sapiens) (UniProt Q8N568); assay: Inhibition of human DCAMKL2 at 18.6 nM by HotSpot assay relative to control
T1 sequence (whole entry): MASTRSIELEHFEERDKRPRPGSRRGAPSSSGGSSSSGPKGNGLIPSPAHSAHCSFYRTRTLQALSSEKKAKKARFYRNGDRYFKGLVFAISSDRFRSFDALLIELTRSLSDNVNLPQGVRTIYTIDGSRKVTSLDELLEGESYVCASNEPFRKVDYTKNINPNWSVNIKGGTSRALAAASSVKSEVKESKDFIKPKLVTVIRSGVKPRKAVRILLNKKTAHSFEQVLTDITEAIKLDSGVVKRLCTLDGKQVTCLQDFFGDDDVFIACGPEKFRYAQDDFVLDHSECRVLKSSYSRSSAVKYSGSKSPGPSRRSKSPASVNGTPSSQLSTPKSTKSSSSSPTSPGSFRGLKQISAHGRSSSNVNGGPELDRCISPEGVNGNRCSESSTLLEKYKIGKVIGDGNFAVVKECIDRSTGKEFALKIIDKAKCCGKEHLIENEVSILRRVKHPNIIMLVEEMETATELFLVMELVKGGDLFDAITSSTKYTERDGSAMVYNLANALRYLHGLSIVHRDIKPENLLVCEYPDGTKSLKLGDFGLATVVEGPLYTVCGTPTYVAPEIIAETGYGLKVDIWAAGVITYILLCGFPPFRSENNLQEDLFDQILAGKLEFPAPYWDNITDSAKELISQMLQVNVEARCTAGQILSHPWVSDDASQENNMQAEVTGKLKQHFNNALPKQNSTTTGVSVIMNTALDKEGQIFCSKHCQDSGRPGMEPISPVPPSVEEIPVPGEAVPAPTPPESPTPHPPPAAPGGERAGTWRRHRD

[3] = molecular target: T2, Muscle, skeletal receptor tyrosine-protein kinase (Homo sapiens) (UniProt O15146); assay: Inhibition of human MUSK at 1.82 nM by HotSpot assay relative to control
T2 sequence (whole entry): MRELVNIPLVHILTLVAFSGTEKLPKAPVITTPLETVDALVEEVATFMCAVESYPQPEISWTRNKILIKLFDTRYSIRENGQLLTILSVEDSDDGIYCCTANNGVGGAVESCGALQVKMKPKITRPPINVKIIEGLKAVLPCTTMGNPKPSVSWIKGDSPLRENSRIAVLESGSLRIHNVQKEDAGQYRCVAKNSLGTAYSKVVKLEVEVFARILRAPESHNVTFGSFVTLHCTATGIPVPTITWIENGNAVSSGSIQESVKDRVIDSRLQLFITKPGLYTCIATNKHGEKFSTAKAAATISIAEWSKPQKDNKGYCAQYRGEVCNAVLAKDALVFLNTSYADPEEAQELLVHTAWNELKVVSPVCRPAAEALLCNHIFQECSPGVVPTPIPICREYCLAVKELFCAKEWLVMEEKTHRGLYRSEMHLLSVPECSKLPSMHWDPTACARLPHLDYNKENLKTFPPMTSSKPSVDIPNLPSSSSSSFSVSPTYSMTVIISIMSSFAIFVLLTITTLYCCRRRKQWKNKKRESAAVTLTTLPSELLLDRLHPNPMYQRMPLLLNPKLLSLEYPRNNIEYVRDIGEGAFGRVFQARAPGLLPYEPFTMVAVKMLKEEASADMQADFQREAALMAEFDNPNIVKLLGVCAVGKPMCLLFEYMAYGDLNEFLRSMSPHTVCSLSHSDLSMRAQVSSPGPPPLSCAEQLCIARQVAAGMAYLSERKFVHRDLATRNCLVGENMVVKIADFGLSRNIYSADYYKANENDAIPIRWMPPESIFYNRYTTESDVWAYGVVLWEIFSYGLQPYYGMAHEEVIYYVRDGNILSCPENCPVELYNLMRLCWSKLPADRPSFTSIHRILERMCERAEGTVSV

[4] = molecular target: T3, Serine/threonine-protein kinase TBK1 (Homo sapiens) (UniProt Q9UHD2); assay: Inhibition of human TBK1 at 1.82 nM by HotSpot assay relative to control
T3 sequence (whole entry): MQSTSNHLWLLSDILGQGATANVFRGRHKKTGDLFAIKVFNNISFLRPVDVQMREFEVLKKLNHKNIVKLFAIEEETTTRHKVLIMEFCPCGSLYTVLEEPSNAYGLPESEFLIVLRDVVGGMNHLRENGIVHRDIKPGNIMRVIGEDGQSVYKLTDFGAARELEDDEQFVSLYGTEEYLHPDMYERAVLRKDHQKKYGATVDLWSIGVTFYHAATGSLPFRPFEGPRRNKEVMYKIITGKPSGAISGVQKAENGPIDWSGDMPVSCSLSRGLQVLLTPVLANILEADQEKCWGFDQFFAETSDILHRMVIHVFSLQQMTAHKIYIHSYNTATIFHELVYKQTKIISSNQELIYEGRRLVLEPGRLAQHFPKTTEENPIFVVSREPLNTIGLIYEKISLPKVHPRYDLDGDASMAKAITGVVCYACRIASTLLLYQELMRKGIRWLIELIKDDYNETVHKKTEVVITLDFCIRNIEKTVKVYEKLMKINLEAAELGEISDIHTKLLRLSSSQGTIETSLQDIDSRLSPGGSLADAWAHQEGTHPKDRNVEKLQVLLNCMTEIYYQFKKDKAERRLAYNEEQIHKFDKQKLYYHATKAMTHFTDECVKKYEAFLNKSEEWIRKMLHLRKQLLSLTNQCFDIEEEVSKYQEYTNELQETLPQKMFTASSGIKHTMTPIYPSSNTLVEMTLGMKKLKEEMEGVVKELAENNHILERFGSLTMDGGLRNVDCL

Chain of Receptor tyrosine-protein kinase erbB-2 (Homo sapiens) (P04626 whole entry): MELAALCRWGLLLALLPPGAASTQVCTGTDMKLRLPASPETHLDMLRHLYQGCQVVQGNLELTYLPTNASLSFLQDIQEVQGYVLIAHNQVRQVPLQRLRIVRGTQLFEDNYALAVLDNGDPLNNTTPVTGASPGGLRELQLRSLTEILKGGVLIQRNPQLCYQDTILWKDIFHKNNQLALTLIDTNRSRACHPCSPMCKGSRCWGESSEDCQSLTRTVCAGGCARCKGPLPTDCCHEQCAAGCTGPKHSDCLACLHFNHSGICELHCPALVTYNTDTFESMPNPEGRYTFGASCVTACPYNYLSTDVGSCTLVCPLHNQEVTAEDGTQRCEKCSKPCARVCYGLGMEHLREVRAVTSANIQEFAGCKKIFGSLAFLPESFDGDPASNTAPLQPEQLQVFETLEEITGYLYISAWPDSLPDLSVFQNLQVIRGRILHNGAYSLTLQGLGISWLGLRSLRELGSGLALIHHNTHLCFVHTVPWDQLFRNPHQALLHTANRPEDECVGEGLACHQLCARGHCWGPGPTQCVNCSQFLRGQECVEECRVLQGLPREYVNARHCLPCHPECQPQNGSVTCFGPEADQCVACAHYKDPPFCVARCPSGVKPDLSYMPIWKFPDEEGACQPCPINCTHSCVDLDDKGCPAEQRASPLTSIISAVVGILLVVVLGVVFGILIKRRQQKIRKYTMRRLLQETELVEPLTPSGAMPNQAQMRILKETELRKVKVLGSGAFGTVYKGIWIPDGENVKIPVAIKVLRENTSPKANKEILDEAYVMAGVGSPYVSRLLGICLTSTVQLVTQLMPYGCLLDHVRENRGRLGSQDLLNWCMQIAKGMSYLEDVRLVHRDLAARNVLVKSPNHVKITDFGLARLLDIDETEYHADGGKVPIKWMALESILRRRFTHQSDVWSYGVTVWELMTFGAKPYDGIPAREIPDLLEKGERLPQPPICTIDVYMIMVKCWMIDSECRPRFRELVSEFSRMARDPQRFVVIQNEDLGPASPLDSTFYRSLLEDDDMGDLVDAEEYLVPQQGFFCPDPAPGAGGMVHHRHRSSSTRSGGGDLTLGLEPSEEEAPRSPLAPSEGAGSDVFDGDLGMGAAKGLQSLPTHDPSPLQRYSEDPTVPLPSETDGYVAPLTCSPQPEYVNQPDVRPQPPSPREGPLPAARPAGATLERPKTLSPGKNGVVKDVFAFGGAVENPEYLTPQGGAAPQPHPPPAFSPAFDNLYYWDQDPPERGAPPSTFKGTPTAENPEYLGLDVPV

Row | Compound | inhibition [1] [%] | inhibition [2] [%] | inhibition [3] [%] | inhibition [4] [%]
1 | C[C@]1(O)C[C@@H](c2nc(-c3ccc4ccc(-c5ccccc5)nc4c3)c3c(N)nccn32)C1 | 1.71 | 10.8 | – | –
2 | C[C@@]1(C(=O)Nc2ccc(F)nc2)CCCN1c1nc(Nc2cc(C3CC3)n[nH]2)c2cccn2n1 | – | – | -0.39 | 7.68
